The nature of series [1]: xn = mol fraction of the nth substance listed. The following applies: 101 kPa, Liquid.
Series [2] in a line: refractive index (Na D-line) (dimensionless); xn = mol fraction of the nth substance listed. Conditions: 101 kPa, Liquid.
The conditions of series [3]: 101 kPa, Liquid.
Series [4] is described as follows: refractive index (Na D-line) (dimensionless). Conditions: 101.33 kPa, Liquid.

Numbers after ± are expanded uncertainties.

In the NIST ThermoML archive (doi:10.1016/j.jct.2005.11.012) one finds mass density and refractive index data, which are given here for twelve compounds.

The term mass density denotes mass per unit of volume. As usually defined, the refractive index is a measure of how strongly the sample bends light.

Consider `BrC(Br)C(Br)Br` [1,1,2,2-tetrabromoethane] + CCCCCCO, for which the mass density is reported as 1021.6 ± 0.58 kg/m3 in series [1] (293.15 K, x1 = 0.1001); 1227.75 ± 0.89 kg/m3 in series [1] (293.15 K, x1 = 0.2007); 1434.26 ± 1.2 kg/m3 in series [1] (293.15 K, x1 = 0.3004); 1643.89 ± 1.6 kg/m3 in series [1] (293.15 K, x1 = 0.4004); 1856.54 ± 2 kg/m3 in series [1] (293.15 K, x1 = 0.5005); 2072.22 ± 2.3 kg/m3 in series [1] (293.15 K, x1 = 0.6008). Moreover, the mass density in series [1] (293.15 K, x1 = 0.6999) amounted to 2288.24 ± 2.5 kg/m3; in series [1] (293.15 K, x1 = 0.8012), 2512.37 ± 2.8 kg/m3; in series [1] (293.15 K, x1 = 0.9001), 2734.51 ± 3.2 kg/m3; in series [1] (293.15 K, x1 = 1) it was 2963.2 ± 3.5 kg/m3; in series [1] (303.15 K, x1 = 0.1001) it was 1012.63 ± 0.57 kg/m3; in series [1] (303.15 K, x1 = 0.2007) it was 1216.94 ± 0.87 kg/m3. For the same compound, the mass density in series [1] (303.15 K, x1 = 0.3004) is 1421.62 ± 1.2 kg/m3; in series [1] (303.15 K, x1 = 0.4004), 1629.48 ± 1.6 kg/m3; in series [1] (303.15 K, x1 = 0.5005), 1840.42 ± 2 kg/m3; in series [1] (303.15 K, x1 = 0.6008), 2054.51 ± 2.2 kg/m3; in series [1] (303.15 K, x1 = 0.6999), 2269.06 ± 2.5 kg/m3; in series [1] (303.15 K, x1 = 0.8012) it was 2491.76 ± 2.8 kg/m3. Further, the mass density amounted to 2712.53 ± 3.1 kg/m3 in series [1] (303.15 K, x1 = 0.9001) and 2939.86 ± 3.5 kg/m3 in series [1] (303.15 K, x1 = 1). In addition, the refractive index in series [2] (293.15 K, x1 = 0.1001) is on record as 1.43743 ± 0.00065; in series [2] (293.15 K, x1 = 0.2007) it was 1.45713 ± 0.00065; in series [2] (293.15 K, x1 = 0.3004) it was 1.4771 ± 0.00065; in series [2] (293.15 K, x1 = 0.4004), 1.49787 ± 0.00066; in series [2] (293.15 K, x1 = 0.5005) it was 1.51914 ± 0.00066; in series [2] (293.15 K, x1 = 0.6008) it was 1.54101 ± 0.00066. The refractive index is 1.56327 ± 0.00065 in series [2] (293.15 K, x1 = 0.6999); 1.58693 ± 0.00065 in series [2] (293.15 K, x1 = 0.8012); 1.61052 ± 0.00065 in series [2] (293.15 K, x1 = 0.9001); 1.63535 ± 0.00065 in series [2] (293.15 K, x1 = 1); 1.43304 ± 0.00065 in series [2] (303.15 K, x1 = 0.1001); 1.45244 ± 0.00065 in series [2] (303.15 K, x1 = 0.2007). Also, the refractive index in series [2] (303.15 K, x1 = 0.3004) is 1.47214 ± 0.00065; in series [2] (303.15 K, x1 = 0.4004), 1.49244 ± 0.00066; in series [2] (303.15 K, x1 = 0.5005), 1.51355 ± 0.00066; in series [2] (303.15 K, x1 = 0.6008), 1.53523 ± 0.00066; in series [2] (303.15 K, x1 = 0.6999) it was 1.55749 ± 0.00065; in series [2] (303.15 K, x1 = 0.8012) it was 1.58095 ± 0.00065. The refractive index was 1.60452 ± 0.00065 in series [2] (303.15 K, x1 = 0.9001) and 1.62926 ± 0.00065 in series [2] (303.15 K, x1 = 1).
On to `BrC(Br)C(Br)Br` [1,1,2,2-tetrabromoethane] + CCCCCO, for which the mass density is reported as 1048.36 ± 0.61 kg/m3 in series [1] (293.15 K, x1 = 0.1009); 1276.63 ± 0.97 kg/m3 in series [1] (293.15 K, x1 = 0.2014); 1497.47 ± 1.4 kg/m3 in series [1] (293.15 K, x1 = 0.3004); 1716.5 ± 1.8 kg/m3 in series [1] (293.15 K, x1 = 0.4003); 1934.64 ± 2.1 kg/m3 in series [1] (293.15 K, x1 = 0.5014); 2144.16 ± 2.4 kg/m3 in series [1] (293.15 K, x1 = 0.6001). Moreover, the mass density in series [1] (293.15 K, x1 = 0.7001) was determined as 2353.22 ± 2.6 kg/m3; in series [1] (293.15 K, x1 = 0.7998), 2558.61 ± 2.9 kg/m3; in series [1] (293.15 K, x1 = 0.8997) it was 2761.73 ± 3.2 kg/m3; in series [1] (293.15 K, x1 = 1), 2963.2 ± 3.5 kg/m3; in series [1] (303.15 K, x1 = 0.1009), 1038.85 ± 0.6 kg/m3; in series [1] (303.15 K, x1 = 0.2014), 1265.1 ± 0.95 kg/m3. Moreover, the mass density was found to be 1484.08 ± 1.3 kg/m3 in series [1] (303.15 K, x1 = 0.3004); 1701.36 ± 1.7 kg/m3 in series [1] (303.15 K, x1 = 0.4003); 1917.88 ± 2.1 kg/m3 in series [1] (303.15 K, x1 = 0.5014); 2125.93 ± 2.3 kg/m3 in series [1] (303.15 K, x1 = 0.6001); 2333.58 ± 2.6 kg/m3 in series [1] (303.15 K, x1 = 0.7001); 2537.64 ± 2.9 kg/m3 in series [1] (303.15 K, x1 = 0.7998). For the same compound, the mass density in series [1] (303.15 K, x1 = 0.8997) was 2739.49 ± 3.2 kg/m3; in series [1] (303.15 K, x1 = 1), 2939.86 ± 3.5 kg/m3. In addition, the refractive index worked out at 1.43257 ± 0.00065 in series [2] (293.15 K, x1 = 0.1009); 1.45508 ± 0.00065 in series [2] (293.15 K, x1 = 0.2014); 1.47732 ± 0.00065 in series [2] (293.15 K, x1 = 0.3004); 1.49977 ± 0.00066 in series [2] (293.15 K, x1 = 0.4003); 1.52252 ± 0.00066 in series [2] (293.15 K, x1 = 0.5014); 1.54476 ± 0.00066 in series [2] (293.15 K, x1 = 0.6001). Also, the refractive index in series [2] (293.15 K, x1 = 0.7001) is given as 1.56734 ± 0.00065; in series [2] (293.15 K, x1 = 0.7998), 1.58989 ± 0.00065; in series [2] (293.15 K, x1 = 0.8997), 1.61255 ± 0.00065; in series [2] (293.15 K, x1 = 1), 1.63535 ± 0.00065; in series [2] (303.15 K, x1 = 0.1009) it was 1.42823 ± 0.00065; in series [2] (303.15 K, x1 = 0.2014), 1.45052 ± 0.00065. Moreover, the refractive index is on record as 1.47247 ± 0.00065 in series [2] (303.15 K, x1 = 0.3004); 1.49475 ± 0.00066 in series [2] (303.15 K, x1 = 0.4003); 1.51723 ± 0.00066 in series [2] (303.15 K, x1 = 0.5014); 1.53938 ± 0.00066 in series [2] (303.15 K, x1 = 0.6001); 1.5616 ± 0.00065 in series [2] (303.15 K, x1 = 0.7001); 1.58403 ± 0.00065 in series [2] (303.15 K, x1 = 0.7998). The refractive index in series [2] (303.15 K, x1 = 0.8997) is given as 1.60652 ± 0.00065; in series [2] (303.15 K, x1 = 1), 1.62926 ± 0.00065.
With `CCCCCCCCCCO` [decan-1-ol], the mass density in series [3] (293.15 K) came out at 829.7 ± 0.57 kg/m3; in series [3] (303.15 K), 822.85 ± 0.58 kg/m3. The refractive index in series [4] (293.15 K) was determined as 1.43706 ± 0.00065; in series [4] (303.15 K), 1.43302 ± 0.00065.
Consider `CCCCCCCCCCO` [decan-1-ol] + BrC(Br)C(Br)Br, for which the mass density came out at 829.7 ± 0.57 kg/m3 in series [1] (293.15 K, x2 = 0) and 822.85 ± 0.58 kg/m3 in series [1] (303.15 K, x2 = 0). The refractive index in series [2] (293.15 K, x2 = 0) was determined as 1.43706 ± 0.00065; in series [2] (303.15 K, x2 = 0), 1.43302 ± 0.00065.
Consider `CCCCCCCO` [heptan-1-ol], for which the mass density amounted to 822.39 ± 0.58 kg/m3 in series [3] (293.15 K) and 815.41 ± 0.58 kg/m3 in series [3] (303.15 K). For the same compound, the refractive index in series [4] (293.15 K) is 1.42397 ± 0.00065; in series [4] (303.15 K), 1.42002 ± 0.00065.
As for `CCCCCCCO` [heptan-1-ol] + BrC(Br)C(Br)Br, the mass density in series [1] (293.15 K, x2 = 0) amounted to 822.39 ± 0.58 kg/m3; in series [1] (303.15 K, x2 = 0) it was 815.41 ± 0.58 kg/m3. Further, the refractive index in series [2] (293.15 K, x2 = 0) is recorded as 1.42397 ± 0.00065; in series [2] (303.15 K, x2 = 0), 1.42002 ± 0.00065.
With `CCCCCCO` [hexan-1-ol], the mass density in series [3] (293.15 K) is on record as 818.92 ± 0.58 kg/m3; in series [3] (303.15 K), 811.73 ± 0.59 kg/m3. Moreover, the refractive index is listed as 1.41826 ± 0.00065 in series [4] (293.15 K) and 1.41423 ± 0.00065 in series [4] (303.15 K).
As for `CCCCCCO` [hexan-1-ol] + BrC(Br)C(Br)Br, the mass density worked out at 818.92 ± 0.58 kg/m3 in series [1] (293.15 K, x2 = 0) and 811.73 ± 0.59 kg/m3 in series [1] (303.15 K, x2 = 0). The refractive index is listed as 1.41826 ± 0.00065 in series [2] (293.15 K, x2 = 0) and 1.41423 ± 0.00065 in series [2] (303.15 K, x2 = 0).
Turning to `CCCCCCCCO` [octan-1-ol], the mass density in series [3] (293.15 K) came to 824.99 ± 0.58 kg/m3; in series [3] (303.15 K), 818.09 ± 0.58 kg/m3. Moreover, the refractive index was determined as 1.42958 ± 0.00065 in series [4] (293.15 K) and 1.42562 ± 0.00065 in series [4] (303.15 K).
Take `CCCCCCCCO` [octan-1-ol] + BrC(Br)C(Br)Br: the mass density worked out at 824.99 ± 0.58 kg/m3 in series [1] (293.15 K, x2 = 0) and 818.09 ± 0.58 kg/m3 in series [1] (303.15 K, x2 = 0). For the same compound, the refractive index turned out to be 1.42958 ± 0.00065 in series [2] (293.15 K, x2 = 0) and 1.42562 ± 0.00065 in series [2] (303.15 K, x2 = 0).
In the case of `CCCCCO` [pentan-1-ol], the results for the mass density in series [3] (293.15 K) and in series [3] (303.15 K) were 815.03 ± 0.58 kg/m3 and 807.6 ± 0.59 kg/m3, respectively. Also, the results for the refractive index in series [4] (293.15 K) and in series [4] (303.15 K) were 1.40995 ± 0.00065 and 1.40592 ± 0.00065, respectively.
In the case of `CCCCCO` [pentan-1-ol] + BrC(Br)C(Br)Br, the mass density is 815.03 ± 0.58 kg/m3 in series [1] (293.15 K, x2 = 0) and 807.6 ± 0.59 kg/m3 in series [1] (303.15 K, x2 = 0). Further, the refractive index is listed as 1.40995 ± 0.00065 in series [2] (293.15 K, x2 = 0) and 1.40592 ± 0.00065 in series [2] (303.15 K, x2 = 0).
